Values of other authors, collected in patent publication US5872104A, “Combinations and methods for reducing antimicrobial resistance” (Oridigm Corporation, priority 1994, dated 1999).
In brackets after ≈: the same amount, converted by molar mass. Several values for one entry are separate records, joined by “and”; a condition that tells them apart may be missing. Identical values can stand only once. Like-named read-outs stand apart in the source and are kept apart here.

How the values were obtained:
[1] = tested on: Bacillus spp.; details: cited from earlier work
[2] = tested on: Bacteroides fragilis; details: cited from earlier work
[3] = tested on: Bordetella bronchiseptica; details: cited from earlier work
[4] = tested on: Bordetella parapertussis; details: cited from earlier work
[5] = tested on: Bordetella pertussis; details: cited from earlier work
[6] = tested on: Borrelia burgdorferi; details: cited from earlier work
[7] = tested on: Branhamella (Moraxella) catarrhalis; details: cited from earlier work
[8] = tested on: Campylobacter jejuni; details: in µg/mL; cited from earlier work
[9] = tested on: Campylobacter pylori; details: cited from earlier work
[10] = tested on: Corynebacterium JK; details: cited from earlier work
[11] = tested on: Enterococcus faecium; details: cited from earlier work
[12] = tested on: Enterococcus spp.; details: cited from earlier work
[13] = tested on: Haemophilus ducreyi; details: cited from earlier work
[14] = tested on: Haemophilus influenzae; details: cited from earlier work
[15] = tested on: Haemophilus influenzae (penicillin susceptible); details: cited from earlier work
[16] = tested on: Haemophilus influenzae (penicillin resistant); details: cited from earlier work
[17] = tested on: Haemophilus parainfluenzae; details: cited from earlier work
[18] = tested on: Legionella spp.; details: cited from earlier work
[19] = tested on: Listeria monocytogenes; details: in µg/mL; cited from earlier work
[20] = tested on: Mycoplasma pneumoniae; details: cited from earlier work
[21] = tested on: Neisseria gonorrhoeae; details: cited from earlier work
[22] = tested on: Neisseria gonorrhoeae (non β-lactamase producer); details: cited from earlier work
[23] = tested on: Neisseria meningitidis; details: cited from earlier work
[24] = tested on: Nocardia asteroides; details: cited from earlier work
[25] = tested on: Staphylococcus aureus; details: cited from earlier work
[26] = tested on: Staphylococcus aureus (penicillin susceptible); details: cited from earlier work
[27] = tested on: Staphylococcus aureus (penicillin resistant); details: cited from earlier work
[28] = tested on: Staphylococcus aureus (methicillin susceptible); details: in µg/mL; cited from earlier work
[29] = tested on: Staphylococcus coagulase .phi.; details: cited from earlier work
[30] = tested on: Staphylococcus coagulase .phi. (non β-lactamase producer); details: cited from earlier work
[31] = tested on: Staphylococcus coagulase .phi. (β-lactamase producer); details: cited from earlier work
[32] = tested on: Staphylococcus epidermidis; details: cited from earlier work
[33] = tested on: Staphylococcus haemolyticus; details: cited from earlier work
[34] = tested on: Staphylococcus hominis; details: cited from earlier work
[35] = tested on: Streptococcus agalactiae; details: cited from earlier work
[36] = tested on: Streptococcus pyogenes; details: cited from earlier work
[37] = tested on: Streptococcus spp.; details: cited from earlier work
[38] = tested on: Ureaplasma urealyticum; details: cited from earlier work
[39] = tested on: Staphylococcus aureus, methicillin susceptible; details: in µg/mL; cited from earlier work
[40] = tested on: Streptococcus pyogenes (group A), erythromycin susceptible; details: cited from earlier work
[41] = tested on: Streptococcus pneumoniae; details: in µg/mL; cited from earlier work
[42] = tested on: Streptococcus agalactactiae (group B); details: in µg/mL; cited from earlier work
[43] = tested on: Viridans streptococci; details: cited from earlier work
[44] = tested on: Listeria monocytogenes; details: in µg/mL; cited from earlier work; remark: listed apart in the source
[45] = tested on: Moraxella catarrhalis; details: in µg/mL; cited from earlier work
[46] = tested on: Neisseria gonorrhoeae; details: in µg/mL; cited from earlier work
[47] = tested on: N. meningitidis; details: in µg/mL; cited from earlier work
[48] = tested on: Bordetella pertussis; details: in µg/mL; cited from earlier work
[49] = tested on: Legionella pneumophila; details: in µg/mL; cited from earlier work
[50] = tested on: Bacteroides fragilis; details: anaerobes; in µg/mL; cited from earlier work
[51] = tested on: Clostridium perfringens; details: anaerobes; in µg/mL; cited from earlier work
[52] = tested on: Chlamydia pneumoniae (formerly TWAR); details: in µg/mL; cited from earlier work
[53] = tested on: Chlamydia trachomatis; details: in µg/mL; cited from earlier work
[54] = tested on: Mycoplasma pneumoniae; details: in µg/mL; cited from earlier work
[55] = tested on: S. aureus; details: agar disc susceptibility test; cited from earlier work
[56] = in vivo; cited from earlier work

## CC[C@H]1OC(=O)[C@H](C)[C@@H](O[C@H]2C[C@@](C)(OC)[C@@H](O)[C@H](C)O2)[C@H](C)[C@@H](O[C@@H]2O[C@H](C)C[C@H](N(C)C)[C@H]2O)[C@](C)(O)C[C@@H](C)C(=O)[C@H](C)[C@@H](O)[C@]1(C)O [Erythromycin]
[1]
  MIC50: 0.25 µg/mL (≈ 0.341 µM)
  MIC90: 2 µg/mL (≈ 2.73 µM)
  Range: 0.03-2
[2]
  MIC50: 1 µg/mL (≈ 1.36 µM)
  MIC90: 8 µg/mL (≈ 10.9 µM)
  Range: ≤0.25-16
[3]
  MIC50: 8 µg/mL (≈ 10.9 µM)
  MIC90: 32 µg/mL (≈ 43.6 µM)
  Range: 4-32
[4]
  MIC50: 0.25 µg/mL (≈ 0.341 µM)
  MIC90: 0.25 µg/mL (≈ 0.341 µM)
[5]
  MIC50: 0.25 µg/mL (≈ 0.341 µM)
[6]
  MIC50: 0.03 µg/mL (≈ 0.0409 µM)
  MIC90: 0.06 µg/mL (≈ 0.0818 µM)
[7]
  MIC50: 0.25 µg/mL (≈ 0.341 µM)
[8]
  MIC90: 4 and 2
[9]
  MIC50: 0.5 µg/mL (≈ 0.681 µM)
  Range: 0.25-16
[10]
  MIC50: 2 µg/mL (≈ 2.73 µM)
  MIC90: ≥ 64 µg/mL
[11]
  MIC50: 1 µg/mL (≈ 1.36 µM)
  MIC90: ≥ 64 µg/mL
[12]
  MIC50: 2 µg/mL (≈ 2.73 µM)
  MIC90: ≥ 32 µg/mL
[13]
  MIC50: 0.004 µg/mL (≈ 0.00545 µM)
  MIC90: 0.06 µg/mL (≈ 0.0818 µM)
[14]
  Range: 0.5-8
[14]; in µg/mL
  MIC50: 2 and 1
[15]
  MIC50: 8 µg/mL (≈ 10.9 µM)
  MIC90: 16 µg/mL (≈ 21.8 µM)
  Range: 0.25-16
[16]
  MIC50: 8 µg/mL (≈ 10.9 µM)
  MIC90: 16 µg/mL (≈ 21.8 µM)
  Range: 8-16
[17]
  MIC50: 2 µg/mL (≈ 2.73 µM)
  MIC90: 4 µg/mL (≈ 5.45 µM)
  Range: 0.5-8
[18]
  MIC90: 0.25 µg/mL (≈ 0.341 µM)
[19]
  MIC50: 0.5 and 0.25
[20]
  MIC90: ≤ 0.004 µg/mL
[21]
  MIC50: 0.25 µg/mL (≈ 0.341 µM)
  MIC90: 1 µg/mL (≈ 1.36 µM)
  Range: 0.0075-8
[22]
  Range: 0.015-4 and 0.03-2
[23]
  MIC50: 1 µg/mL (≈ 1.36 µM)
  MIC90: 8 µg/mL (≈ 10.9 µM)
  Range: 0.5-8
[24]
  MIC50: ≥ 8 µg/mL
  MIC90: ≥ 8 µg/mL
[25]
  MIC50: 0.5 µg/mL (≈ 0.681 µM)
[26]
  MIC90: 0.5 µg/mL (≈ 0.681 µM)
[26]; in µg/mL
  MIC50: 0.5 and 0.25
[27]
  MIC50: 0.25 µg/mL (≈ 0.341 µM)
  MIC90: ≥ 32 µg/mL
[28]
  MIC50: 0.25 and 0.5
[29]
  MIC50: 0.25 µg/mL (≈ 0.341 µM)
[30]
  MIC90: 0.25 µg/mL (≈ 0.341 µM)
  Range: 0.03-8
[31]
  MIC90: 4 µg/mL (≈ 5.45 µM)
  Range: 0.06-16
[32]
  MIC50: ≥ 64 µg/mL
  MIC90: ≥ 64 µg/mL
[33]
  MIC50: ≥ 64 µg/mL
  MIC90: ≥ 64 µg/mL
[34]
  MIC50: ≥ 64 µg/mL
  MIC90: ≥ 64 µg/mL
[35]
  MIC50: 0.03 µg/mL (≈ 0.0409 µM)
  Range: 0.03-0.25
[36]
  MIC50: 0.06 µg/mL (≈ 0.0818 µM)
[37]
  MIC50: 0.03 µg/mL (≈ 0.0409 µM)
  MIC90: 1 µg/mL (≈ 1.36 µM)
[38]
  MIC90: 32 µg/mL (≈ 43.6 µM)
[39]
  MIC90: 0.25-0.50
[40]
  MIC90: 0.03 µg/mL (≈ 0.0409 µM)
[41]
  MIC90: 0.03-1.0
[42]
  MIC90: 0.03-0.25
[43]
  MIC90: 0.06 µg/mL (≈ 0.0818 µM)
[44]
  MIC90: 0.5-2.0
[45]
  MIC90: 0.25-2.0
[46]
  MIC90: 0.25-2.0
[47]
  MIC90: 0.4-1.6
[48]
  MIC90: 0.3-1.6
[49]
  MIC90: 1.0-2.0
[50]
  MIC90: 4.0-32.0
[51]
  MIC90: 1.0
[52]
  MIC90: 0.065-1.0
[53]
  MIC90: 0.12-0.25
[54]
  MIC90: 0.004
[55]
  MIC90: about 4 μg/ml
[56]
  clinical safety: one of the safest antibiotics in current clinical use
